Laboratory results from PubChem BioAssay (NCI).
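Five compound concentrations were applied to cells in 96-well plates for 48 hours; endpoints were derived by simple linear interpolation of the resulting dose-response curve. The concentration for full growth arrest is given as TGI.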

Assays:
Assay in all cases: NCI anticancer screen, dose series, 48 h
CCRF-CEM leukemia = tested on: CCRF-CEM leukemia
HCT-116 colon = tested on: HCT-116 colon
TK-10 renal = tested on: TK-10 renal
SW-620 colon = tested on: SW-620 colon
SNB-75 CNS = tested on: SNB-75 CNS
PC-3 prostate = tested on: PC-3 prostate
MOLT-4 leukemia = tested on: MOLT-4 leukemia
RXF 393 renal = tested on: RXF 393 renal
UACC-257 melanoma = tested on: UACC-257 melanoma
SR leukemia = tested on: SR leukemia
SF-539 CNS = tested on: SF-539 CNS
MCF7 breast = tested on: MCF7 breast
ACHN renal = tested on: ACHN renal
COLO 205 colon = tested on: COLO 205 colon
KM12 colon = tested on: KM12 colon
NCI/ADR-RES ovarian = tested on: NCI/ADR-RES ovarian
NCI-H460 lung = tested on: NCI-H460 lung
MDA-N = tested on: MDA-N
786-0 renal = tested on: 786-0 renal
MDA-MB-231 breast = tested on: MDA-MB-231 breast
OVCAR-4 ovarian = tested on: OVCAR-4 ovarian
HCC-2998 colon = tested on: HCC-2998 colon
HOP-92 NSCLC = tested on: HOP-92 NSCLC
EKVX NSCLC = tested on: EKVX NSCLC
K-562 leukemia = tested on: K-562 leukemia
A549 NSCLC = tested on: A549 NSCLC
UACC-62 melanoma = tested on: UACC-62 melanoma
SF-295 CNS = tested on: SF-295 CNS
A498 renal = tested on: A498 renal
IGROV1 ovarian = tested on: IGROV1 ovarian
M14 melanoma = tested on: M14 melanoma
SK-MEL-28 melanoma = tested on: SK-MEL-28 melanoma
HOP-62 NSCLC = tested on: HOP-62 NSCLC
LOX IMVI melanoma = tested on: LOX IMVI melanoma
SK-MEL-2 melanoma = tested on: SK-MEL-2 melanoma
NCI-H23 lung = tested on: NCI-H23 lung
UO-31 renal = tested on: UO-31 renal
SK-MEL-5 melanoma = tested on: SK-MEL-5 melanoma
DU-145 prostate = tested on: DU-145 prostate
MDA-MB-435 = tested on: MDA-MB-435
HCT-15 colon = tested on: HCT-15 colon
OVCAR-3 ovarian = tested on: OVCAR-3 ovarian
SK-OV-3 ovarian = tested on: SK-OV-3 ovarian
HL-60(TB) leukemia = tested on: HL-60(TB) leukemia
T-47D breast = tested on: T-47D breast
HT29 colon = tested on: HT29 colon
OVCAR-8 ovarian = tested on: OVCAR-8 ovarian
U251 CNS = tested on: U251 CNS
SF-268 CNS = tested on: SF-268 CNS
BT-549 breast = tested on: BT-549 breast
SN12C renal = tested on: SN12C renal
CAKI-1 renal = tested on: CAKI-1 renal
OVCAR-5 ovarian = tested on: OVCAR-5 ovarian
HS 578T breast = tested on: HS 578T breast
RPMI-8226 leukemia = tested on: RPMI-8226 leukemia
SNB-19 CNS = tested on: SNB-19 CNS
NCI-H226 lung = tested on: NCI-H226 lung
MALME-3M melanoma = tested on: MALME-3M melanoma

SMILES: c1csc(-c2ccsc2-c2ccsc2)c1
- TGI (CCRF-CEM leukemia): > 100 µM
- TGI (HCT-116 colon): > 100 µM
- TGI (TK-10 renal): > 100 µM
- TGI (SW-620 colon): > 100 µM
- TGI (SNB-75 CNS): > 100 µM
- TGI (PC-3 prostate): > 100 µM
- TGI (MOLT-4 leukemia): > 100 µM
- TGI (RXF 393 renal): 76.3 µM
- TGI (UACC-257 melanoma): > 100 µM
- TGI (SR leukemia): > 100 µM
- TGI (SF-539 CNS): > 100 µM
- TGI (MCF7 breast): > 100 µM
- TGI (ACHN renal): > 100 µM
- TGI (COLO 205 colon): > 100 µM
- TGI (KM12 colon): > 100 µM
- TGI (NCI/ADR-RES ovarian): > 100 µM
- TGI (NCI-H460 lung): > 100 µM
- TGI (MDA-N): > 100 µM
- TGI (786-0 renal): > 100 µM
- TGI (MDA-MB-231 breast): > 100 µM
- TGI (OVCAR-4 ovarian): > 100 µM
- TGI (HCC-2998 colon): > 100 µM
- TGI (HOP-92 NSCLC): > 100 µM
- TGI (EKVX NSCLC): > 100 µM
- TGI (K-562 leukemia): > 100 µM
- TGI (A549 NSCLC): > 100 µM
- TGI (UACC-62 melanoma): > 100 µM
- TGI (SF-295 CNS): > 100 µM
- TGI (A498 renal): > 100 µM
- TGI (IGROV1 ovarian): > 100 µM
- TGI (M14 melanoma): > 100 µM
- TGI (SK-MEL-28 melanoma): > 100 µM
- TGI (HOP-62 NSCLC): > 100 µM
- TGI (LOX IMVI melanoma): > 100 µM
- TGI (SK-MEL-2 melanoma): 42.3 µM
- TGI (NCI-H23 lung): > 100 µM
- TGI (UO-31 renal): > 100 µM
- TGI (SK-MEL-5 melanoma): > 100 µM
- TGI (DU-145 prostate): > 100 µM
- TGI (MDA-MB-435): > 100 µM
- TGI (HCT-15 colon): > 100 µM
- TGI (OVCAR-3 ovarian): 87.6 µM
- TGI (SK-OV-3 ovarian): > 100 µM
- TGI (HL-60(TB) leukemia): > 100 µM
- TGI (T-47D breast): > 100 µM
- TGI (HT29 colon): > 100 µM
- TGI (OVCAR-8 ovarian): > 100 µM
- TGI (U251 CNS): > 100 µM
- TGI (SF-268 CNS): > 100 µM
- TGI (BT-549 breast): > 100 µM
- TGI (SN12C renal): > 100 µM
- TGI (CAKI-1 renal): > 100 µM
- TGI (OVCAR-5 ovarian): > 100 µM
- TGI (HS 578T breast): > 100 µM
- TGI (RPMI-8226 leukemia): > 100 µM

SMILES: CC(=O)OCCCCn1cc(Cn2ccc(=O)n(Cc3cn(CCCCOC(C)=O)nn3)c2=O)nn1
- TGI (CCRF-CEM leukemia): > 100 µM
- TGI (HCT-116 colon): > 100 µM
- TGI (TK-10 renal): > 100 µM
- TGI (SW-620 colon): > 100 µM
- TGI (SNB-75 CNS): > 100 µM
- TGI (SNB-19 CNS): > 100 µM
- TGI (PC-3 prostate): > 100 µM
- TGI (MOLT-4 leukemia): > 100 µM
- TGI (RXF 393 renal): > 100 µM
- TGI (UACC-257 melanoma): > 100 µM
- TGI (SF-539 CNS): > 100 µM
- TGI (MCF7 breast): > 100 µM
- TGI (ACHN renal): > 100 µM
- TGI (COLO 205 colon): > 100 µM
- TGI (KM12 colon): > 100 µM
- TGI (NCI/ADR-RES ovarian): > 100 µM
- TGI (MDA-N): > 100 µM
- TGI (NCI-H226 lung): > 100 µM
- TGI (786-0 renal): > 100 µM
- TGI (MDA-MB-231 breast): > 100 µM
- TGI (OVCAR-4 ovarian): > 100 µM
- TGI (HCC-2998 colon): > 100 µM
- TGI (HOP-92 NSCLC): > 100 µM
- TGI (EKVX NSCLC): > 100 µM
- TGI (A549 NSCLC): > 100 µM
- TGI (UACC-62 melanoma): > 100 µM
- TGI (SF-295 CNS): > 100 µM
- TGI (A498 renal): > 100 µM
- TGI (IGROV1 ovarian): > 100 µM
- TGI (M14 melanoma): > 100 µM
- TGI (SK-MEL-28 melanoma): > 100 µM
- TGI (HOP-62 NSCLC): > 100 µM
- TGI (LOX IMVI melanoma): > 100 µM
- TGI (SK-MEL-2 melanoma): > 100 µM
- TGI (NCI-H23 lung): > 100 µM
- TGI (UO-31 renal): > 100 µM
- TGI (SK-MEL-5 melanoma): > 100 µM
- TGI (DU-145 prostate): > 100 µM
- TGI (MALME-3M melanoma): > 100 µM
- TGI (MDA-MB-435): > 100 µM
- TGI (HCT-15 colon): > 100 µM
- TGI (OVCAR-3 ovarian): > 100 µM
- TGI (SK-OV-3 ovarian): > 100 µM
- TGI (T-47D breast): > 100 µM
- TGI (OVCAR-8 ovarian): > 100 µM
- TGI (U251 CNS): > 100 µM
- TGI (SF-268 CNS): > 100 µM
- TGI (BT-549 breast): > 100 µM
- TGI (SN12C renal): > 100 µM
- TGI (CAKI-1 renal): > 100 µM
- TGI (OVCAR-5 ovarian): > 100 µM
- TGI (HS 578T breast): > 100 µM
- TGI (RPMI-8226 leukemia): > 100 µM
